Results as given in patent US20210353579A1, “HIGH PENETRATION COMPOSITIONS AND USES THEREOF” (Techfields Pharma Co., Ltd., priority 2006, published 2021).

Key:
mice = test: Analgesic activity, acetic acid writhing; type: in vivo; conditions: 30 min before acetic acid
Method: The prodrug compounds are administered either transdermally or orally. The parent compounds are administered orally. The number of writhing that occurred when mice are administered the acetic acid solution are counted, and the rate of inhibition based on the control group which was not pretreated with any test compounds is calculated. […] The A group is the control group.

rat = conditions: rats
Method: The acute toxicity of the prodrug compounds and parent compounds are measured by LD50 of rat.

[1] = pH 7
[2] = Plasma levels after transdermal administration to hairless mice; type: in vivo; conditions: mouse, in vivo
Method: Tested compounds (20% solution or suspension in 1 mL isopropanol) are administered transdermally to the skin of intact hairless mice. The plasma levels of the parent compounds are determined by HPLC.

rats [3] = test: Antipyretic activity, E. coli suspension as pyrogen; type: in vivo; conditions: in °C (unit assumed)
Method: Rats are administered with sterilized E. coli suspension as a pyrogen. Each group of rats are administered with a prodrug compounds or parent compounds at a dosage specified below. The prodrug compounds are administered either orally or transdermally. The parent compounds are administered orally.

human skin tissue = conditions: pH 7.4
sun damaged skin = test: Treatment of sun damaged skin of subjects; type: in vivo; conditions: applied to sun damaged skin
Text: Diethylaminoethyl acetylsalicylate.AcOH is applied to subjects' the sun damaged skin. […] 92% of the subjects treated experienced improved elasticity and firmness, and 95% experienced overall improvement in texture and tone. The results shown that HPPs of aspirin and related compounds may be used to treat skin conditions.

rats [4] = test: Spinal cord injury, recovery from paralysis; type: in vivo, rat; conditions: 5 mg in 0.2 ml water on the area of injury twice per day for 1 months
Method: A group of rat was anesthetized with chloral hydrate, the spinal cord of rats was hit to induce spinal cord injury. At the next day, 20 completely paralyzed rats were divided into 2 groups. […] In group B (n=10), 5 mg of diethylaminopropyl acetylsalicylate.HCl in 0.2 ml of pure water was applied to the area of injury (˜2×3 cm^2) twice per day for 1 months. After the treatment, all rats (10/10) in control group (group A) were still completely paralyzed. We were excited to see that all rats (10/10) in the diethylaminopropyl acetylsalicylate.HCl treated group (group B) could walk. 4 Rats of them were completely normal and other 6 rats walked more slowly and less confidently than their injury. This therapeutic approach can treat spinal cord injury in humans and animals.

Tg2576 mouse = test: Tg2576 mice: radial-arm water-maze test of working memory; type: in vivo; conditions: 50 mg/kg, 2 months
Method: To determine if the transdermal administration of diethylaminopropyl acetylsalicylate.HCl has beneficial functional consequences, we tested 2 months of diethylaminopropyl acetylsalicylate.HCl (50 mg/kg) in the transgenic model for Alzheimer's disease in which mice develop learning deficits as amyloid accumulates. […] In the diethylaminopropyl acetylsalicylate.HCl (50 mg/kg) treated group, all mice performed superbly on the radial-arm water-maze test of working memory and untreated transgenic mice show memory deficits. […] This therapeutic approach can thus prevent and treat Alzheimer's dementia.

β-amyloid (Aβ) = test: Tg2576 mouse model of Alzheimer disease: Aβ and senile plaques; type: in vivo
Text: For many years, efforts have been focused on the development of inhibitors of β-amyloid (Aβ) formation and its related neurotoxic effects. To determine the effect of diethylaminopropyl acetylsalicylate. HCl on in vivo Aβ accumulation, we administered transdermally diethylaminopropyl acetylsalicylate. […] Three-month-old female transgenic mice overexpressing the human APP gene containing the Swedish mutation that causes familial AD (Tg2576 line) were used for testing the effects of diethylaminopropyl acetylsalicylate.HCl in vivo. 20 Tg2576 mice were divided into 2 groups. […] In group B (n=10), 50 mg/kg of diethylaminopropyl acetylsalicylate.HCl in 0.2 ml of pure water was applied to the back of mouse once per day for 2 months. Then the animals were killed and their brains were removed for analysis. For Aβ analysis, hemibrains were dounce homogenized in 70% formic acid at 150 mg tissue/ml formic acid solution. Homogenates were transferred to a chilled ultracentrifuge and were then spun at 100,000 g for 1 h at 4° C. Supernatants were collected and neutralized with formic acid neutralization buffer (1.0 M Tris base, 0.5 M NaH2PO4, and 0.05% NaN3; 1:20) for Aβ quantitation by ELISA. Aβ40 and Aβ42 were assayed by ELISA. Four individual experiments were performed. To compare across studies, the values for an individual study were normalized using the values obtained for the control animals included in each study. Values represent the mean±SE for the n number shown, after normalizing.

[5] = 50 mg/kg transdermally, 2 months
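Throughout, for LD50 of HPP: acute toxicity in rats expressed as LD50, determined for both prodrugs and their parent compounds.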

CCN(CC)CCOC(=O)c1ccccc1OC(C)=O [diethylaminoethyl acetylsalicylate.AcOH]
% (rate of writhing inhibition) (mice; 50 mg/kg orally): 54%
No. of Writhing (mice; 50 mg/kg orally): 15.4
% (rate of writhing inhibition) (mice; 50 mg/kg transdermally): 56%
No. of Writhing (mice; 50 mg/kg transdermally): 14.5
% (rate of writhing inhibition) (mice; 100 mg/kg orally): 67%
No. of Writhing (mice; 100 mg/kg orally): 11.0
% (rate of writhing inhibition) (mice; 100 mg/kg transdermally): 70%
No. of Writhing (mice; 100 mg/kg transdermally): 10.1
LD50 of HPP (rat): 2300 mg/kg
Solubility of HPP [1]: >300 mg/mL
Peak plasma concentration of parent compound after prodrug compound [2]: 30 mg/L
t, time to peak plasma level of parent compound after prodrug compound [2]: 20 min
body temperature, t = 0 min (rats [3]; 100 mg/kg orally): 37.25 ± 0.09
body temperature, t = 90 min (rats [3]; 100 mg/kg orally): 36.40 ± 0.15
body temperature, t = 180 min (rats [3]; 100 mg/kg orally): 36.50 ± 0.09
body temperature, t = 270 min (rats [3]; 100 mg/kg orally): 36.40 ± 0.15
body temperature, t = 0 min (rats [3]; 100 mg/kg transdermally): 37.19 ± 0.07
body temperature, t = 90 min (rats [3]; 100 mg/kg transdermally): 36.40 ± 0.05
body temperature, t = 180 min (rats [3]; 100 mg/kg transdermally): 36.38 ± 0.05
body temperature, t = 270 min (rats [3]; 100 mg/kg transdermally): 36.40 ± 0.15
body temperature, t = 0 min (rats [3]; 150 mg/kg orally): 37.18 ± 0.07
body temperature, t = 90 min (rats [3]; 150 mg/kg orally): 36.30 ± 0.15
body temperature, t = 180 min (rats [3]; 150 mg/kg orally): 36.28 ± 0.07
body temperature, t = 270 min (rats [3]; 150 mg/kg orally): 36.20 ± 0.09
body temperature, t = 0 min (rats [3]; 150 mg/kg transdermally): 37.33 ± 0.05
body temperature, t = 90 min (rats [3]; 150 mg/kg transdermally): 36.27 ± 0.15
body temperature, t = 180 min (rats [3]; 150 mg/kg transdermally): 36.26 ± 0.07
body temperature, t = 270 min (rats [3]; 150 mg/kg transdermally): 36.22 ± 0.08
In vitro penetration rate (apparent flux), prodrug compounds (human skin tissue): 1000 μg/cm^2/h
reduction in roughness (sun damaged skin): 89%
reduction in the appearance of fine lines and wrinkles (sun damaged skin): 85%
reduction in the look of freckles, moles, dark spots, and other discolorations (sun damaged skin): 85%
reduction of acne (sun damaged skin): 97%
subjects that experienced overall improvement in texture and tone (sun damaged skin): 95%
subjects treated that experienced improved elasticity and firmness (sun damaged skin): 92%

CCN(CC)CCCOC(=O)c1ccccc1OC(C)=O.Cl [diethylaminopropyl acetylsalicylate.HCl]
rats completely normal after treatment (rats [4]): 4
rats that could walk after treatment (rats [4]): 10/10
cognitive performance, radial-arm water-maze test of working memory (Tg2576 mouse): performed as well as nontransgenic mice
reduction in the number of senile plaques (β-amyloid (Aβ); 50 mg/kg transdermally over 2 months): 70-80%
reduction in Aβ42 concentration in the brain (β-amyloid (Aβ); [5]): 70%
reduction of the amount of Aβ detected in the brains (β-amyloid (Aβ); [5]): 70%
Aß42 concentration (β-amyloid (Aβ); Tg2576 mice, 50 mg/kg transdermally once per day for 2 months): 2.3 ± 0.3 pmol/g tissue
